Values of other authors as cited in patent US4213968A, “Enkephalin derivatives” (priority 1978, dated 1980).

Key:
[1] = tested on: brain opiate receptor sites
[2] = tested on: opiate activity
[3] = tested on: analgesia in the rat; details: injected directly into the brain of the rat

In the case of “H-Tyr-Gly-Gly-Phe-Met-OH [methionine enkephalin]”, the “binding to partially purified brain opiate receptor sites” value [1] is given as “binds stereospecifically”, the “activity in bioassays for opiate activity” value [2] is given as “very active” and the analgesic activity [3] is given as “weak analgesic activity of short duration”.
